The target in one test is BIR2 domain of XIAP (Homo sapiens (Human), UniProt P98170, C202A/C213G). Kind of test: TR-FRET assay for BIR2 (inhibition of binding of XIAP BIR2 domain to SMAC-derived Peptide A). Particulars: 6x His-tagged BIR2 domain (aa 124-240 of XIAP) 10 nM, Peptide A 20 nM, TR-FRET; read-out: IC50 BIR2. For orientation: TR-FRET usually uses a lanthanide donor and a delayed reading to cut background.

For the next test, the target named is BIR3 domain of XIAP (Homo sapiens (Human), UniProt P98170). Kind of test: TR-FRET assay for BIR3 (inhibition of binding of XIAP BIR3 domain to SMAC-derived Peptide A). Particulars: 6x His-tagged BIR3 domain (aa 241-356 of XIAP) 10 nM, Peptide A 20 nM, TR-FRET.

For one molecule, IC50 results are on record in patent publication US10053431B2, “Tetrahydro-benzodiazepinones” (priority 2013, dated 2018).

Where a name gives a salt, the structure may show the parent alone. Where only a bound is given, the exact number is not on record here.

BIR3 domain of XIAP, sequence (P98170 241-356 with tags or gaps limits assumed): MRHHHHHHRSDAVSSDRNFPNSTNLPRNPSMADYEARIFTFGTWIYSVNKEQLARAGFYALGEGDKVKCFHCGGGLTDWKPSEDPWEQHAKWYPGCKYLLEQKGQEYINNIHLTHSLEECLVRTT
BIR2 domain of XIAP, sequence (P98170 124-240 with tags or gaps C202A/C213G limits assumed): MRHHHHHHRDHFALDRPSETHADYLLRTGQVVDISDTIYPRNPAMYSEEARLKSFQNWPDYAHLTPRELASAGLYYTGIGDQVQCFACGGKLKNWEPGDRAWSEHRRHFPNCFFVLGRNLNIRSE

Usually IC50 stands for the concentration at which inhibition is half-maximal. In the case of `CN[C@@H](C)C(=O)N[C@H]1CN(C(=O)CCCCC(=O)O)c2ccccc2N(Cc2c(C)ccc3ccccc23)C1=O` [Example 60, 6-((S)-3-((S)-2-(methylamino)propanamido)-5-((2-methylnaphthalen-1-yl)methyl)-4-oxo-2,3,4,5-tetrahydro-1H-benzo[b][1,4]diazepin-1-yl)-6-oxohexanoic acid hydrochloride], the IC50 was 166 nM at BIR2 domain of XIAP and greater than 54800 nM at BIR3 domain of XIAP.
